Data: patent US9296684B2, “Allyl 2-cyanoacrylate prepolymer, preparation method thereof, and bioadhesive composition comprising the prepolymer” (UNIVERSITY-INDUSTRY COOPERATION GROUP OF KYUNG HEE …, priority 2011, dated 2016)

Test: Change of viscosity according to time for heating 2-cyanoacrylate prepolymer
Format: physicochemical
Details: heated at 150° C., FIG. 1
Method: 10 ml of an allyl 2-cyanoacrylate was added to a glass test tube and then sealed in a vacuum state. The sealed glass test tube was put in an oil bath of 150° C. to heat it for 5, 10, 20, 30, 40, 50, 60, and 70 minutes. The heated cyanoacrylate per each given period of time was cooled at room temperature and then the change in viscosity was observed.
An ethyl 2-cyanoacrylate was heated; then the heated cyanoacrylate per each given period of time was cooled at room temperature, and then the change in viscosity was observed, by using an identical method as in Example 1 described above, with the exception that ethyl 2-cyanoacrylate was used instead of allyl 2-cyanoacrylate.
The results of investigating the change in viscosity according to time of heating the 2-cyanoacrylate prepolymer in Example 1 and Comparative Example 1 are shown in FIG. 1. Furthermore, the values of viscosity according to time of heating the 2-cyanoacrylate prepolymer in Example 1 are shown in the following Table 1.

For C=C(C#N)C(=O)OCC [ethyl 2-cyanoacrylate], the “change in viscosity with greater heating time” value was “no increase in the viscosity”.
